# Data reported in ChEMBL document CHEMBL3603750, “Synthesis and biological evaluation of 9-N-oxamyl sialosides as Siglec-7 ligands” (Bioorg Med Chem, 2015).
# pIC50: −log10 of the molar value.
# Molecular target: T1, Sialic acid-binding Ig-like lectin 7 (Homo sapiens, UniProt Q9Y286)
# Assay: Binding affinity to human IgG1-fused human Siglec-7-FC (Gln19 to Gly357 residues) assessed as inhibition Siglec-7-Fc binding to RBC pre-incubated for 10 mins before 20 mins incubation with RBCs by flow cytometry
# T1 sequence (Q9Y286 whole entry, the tested form may be a part): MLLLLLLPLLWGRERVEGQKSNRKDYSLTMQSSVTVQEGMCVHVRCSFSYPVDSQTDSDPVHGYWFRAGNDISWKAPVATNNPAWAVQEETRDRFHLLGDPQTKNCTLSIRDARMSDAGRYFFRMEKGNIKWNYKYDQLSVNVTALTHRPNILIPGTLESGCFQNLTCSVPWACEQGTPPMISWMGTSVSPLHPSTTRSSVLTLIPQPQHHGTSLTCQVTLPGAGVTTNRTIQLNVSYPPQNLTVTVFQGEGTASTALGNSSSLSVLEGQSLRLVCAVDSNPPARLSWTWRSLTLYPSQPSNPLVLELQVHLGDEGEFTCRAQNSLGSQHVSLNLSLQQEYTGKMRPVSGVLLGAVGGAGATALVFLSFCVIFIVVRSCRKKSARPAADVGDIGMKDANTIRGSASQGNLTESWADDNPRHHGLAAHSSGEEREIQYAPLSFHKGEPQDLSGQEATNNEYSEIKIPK
row,pIC50,Structure (SMILES)
1,2.09,CO[C@]1(C(=O)O)C[C@H](O)[C@@H](NC(C)=O)[C@H]([C@H](O)[C@H](O)CO)O1
2,2.78,CO[C@]1(C(=O)O)C[C@H](O)[C@@H](NC(C)=O)[C@H]([C@H](O)[C@H](O)CNC(=O)C(N)=O)O1

# Molecular target: T1, Sialic acid-binding Ig-like lectin 7
# Assay: Potency index, ratio of IC50 for compound-1 to IC50 for test compound for binding affinity to human IgG1-fused human Siglec-7-FC (Gln19 to Gly357 residues) assessed as inhibition Siglec-7-Fc binding to RBC pre-incubated for 10 mins before 20 mins incubation with RBCs by flow cytometry
row,Ratio IC50,Structure (SMILES)
1,8,CO[C@]1(C(=O)O)C[C@H](O)[C@@H](NC(C)=O)[C@H]([C@H](O)[C@H](O)CNC(=O)C(=O)NCc2ccccc2)O1
2,1,CO[C@]1(C(=O)O)C[C@H](O)[C@@H](NC(C)=O)[C@H]([C@H](O)[C@H](O)CO)O1
3,< 2,CCC(C)NC(=O)C(=O)NC[C@@H](O)[C@@H](O)[C@@H]1O[C@@](OC)(C(=O)O)C[C@H](O)[C@H]1NC(C)=O (mixture of isomers)
4,< 2,CNC(=O)C(=O)NC[C@@H](O)[C@@H](O)[C@@H]1O[C@@](OC)(C(=O)O)C[C@H](O)[C@H]1NC(C)=O
5,4.1,CO[C@]1(C(=O)O)C[C@H](O)[C@@H](NC(C)=O)[C@H]([C@H](O)[C@H](O)CNC(=O)C(N)=O)O1
6,< 2,CCNC(=O)C(=O)NC[C@@H](O)[C@@H](O)[C@@H]1O[C@@](OC)(C(=O)O)C[C@H](O)[C@H]1NC(C)=O
7,< 2,CO[C@]1(C(=O)O)C[C@H](O)[C@@H](NC(C)=O)[C@H]([C@H](O)[C@H](O)CNC(=O)C(=O)NC(C)(C)C)O1
8,< 2,CO[C@]1(C(=O)O)C[C@H](O)[C@@H](NC(C)=O)[C@H]([C@H](O)[C@H](O)CNC(=O)C(=O)NC(C)C)O1
9,8,CO[C@]1(C(=O)O)C[C@H](O)[C@@H](NC(C)=O)[C@H]([C@H](O)[C@H](O)CNC(=O)C(=O)NCc2ccc(-c3ccccc3)cc2)O1
10,58,CO[C@]1(C(=O)O)C[C@H](O)[C@@H](NC(C)=O)[C@H]([C@H](O)[C@H](O)CNC(=O)C(=O)Nc2ccccc2)O1
